Consider 14 compounds from ChEMBL document CHEMBL4610070, “Talauxins: Hybrid Phenalenone Dimers from Talaromyces stipitatus” (J Nat Prod, 2020).

In brackets after ≈: the same amount, converted by molar mass. Activity calls are given as the source filed them. No cut-off for these calls is given here. Some results are limits rather than exact numbers.

For orientation: IC50 means the concentration at which inhibition is half-maximal. In general, MIC refers to the lowest concentration that inhibits growth of the organism.

The subject of assay [1] is Candida albicans. The assay can be described thus: Antifungal activity against Candida albicans ATCC 10231 assessed as reduction in microbial growth after incubated for 48 hrs by bromocresol green dye based assay. The format is functional, organism-based.
The subject of assay [2] is Saccharomyces cerevisiae. Description: Antifungal activity against Saccharomyces cerevisiae ATCC 9763 assessed as reduction in microbial growth after incubated for 48 hrs by bromocresol green dye based assay. To be noted: ATCC 9763, 48 h. The format is functional, organism-based.
Assay [3] deals with Escherichia coli. Description: Antibacterial activity against Escherichia coli ATCC 25922 assessed as reduction in microbial growth after incubated for 48 hrs by resazurin dye based assay. The format is functional, organism-based. On the technique in general: Resazurin is reduced to fluorescent resorufin, in cell work by metabolically active cells.
The test system of assay [4] is Bacillus subtilis. Description: Antibacterial activity against Bacillus subtilis ATCC 6633 assessed as reduction in microbial growth after incubated for 48 hrs by resazurin dye based assay. The format is functional, organism-based. To be noted: ATCC 6633, 48 h.
Assay [5] can be described thus: Antiproliferative activity against mouse NS1 cells assessed as reduction in cell viability after 48 hrs by resazurin dye based assay. The format is functional. To be noted: for MIC: 48 h; for IC50: NS1, 48 h.
Assay [6] relates to Candida albicans. The assay can be described thus: Antifungal activity against Candida albicans ATCC 10231 assessed as reduction in microbial growth up to 100 ug/ml after incubated for 48 hrs by bromocresol green dye based assay. The format is functional, organism-based.
In assay [7] the test system is Saccharomyces cerevisiae. The assay can be described thus: Antifungal activity against Saccharomyces cerevisiae ATCC 9763 assessed as reduction in microbial growth up to 100 ug/ml after incubated for 48 hrs by bromocresol green dye based assay. The format is functional, organism-based.
Assay [8] deals with Escherichia coli. Description: Antibacterial activity against Escherichia coli ATCC 25922 assessed as reduction in microbial growth up to 100 ug/ml after incubated for 48 hrs by resazurin dye based assay. The format is functional, organism-based.
Assay [9] relates to Bacillus subtilis. The assay can be described thus: Antibacterial activity against Bacillus subtilis ATCC 6633 assessed as reduction in microbial growth up to 100 ug/ml after incubated for 48 hrs by resazurin dye based assay. The format is functional, organism-based.
The species named for the next assay is Mus musculus. Description: Antiproliferative activity against mouse NS1 cells assessed as reduction in cell viability up to 100 ug/ml after 48 hrs by resazurin dye based assay. The format is functional.

As to `Clc1ccccc1C(c1ccccc1)(c1ccccc1)n1ccnc1` [CLOTRIMAZOLE], the IC50 entry is “Not Active” in the assay with Candida albicans [1] and 0.4 µM in the assay with Saccharomyces cerevisiae [2].
With `Cc1cc(O)c2c3c(c(O)cc(O)c13)C(=O)C(O)=C2O`, the IC50 entry was “Not Active” in the assay with Escherichia coli [3]; 265 µM in the assay on Bacillus subtilis [4]; 70 µM in assay [5]; “Not Active” with Candida albicans [1]; above 400 µM with Saccharomyces cerevisiae [2]. Also, the MIC stood at 100 µg/mL in the assay with Bacillus subtilis [4] and 25 µg/mL (≈ 91.2 µM) in assay [5].
On to `CO[C@@]12c3c(C)cc(O)c4c(=O)n([C@@H](CCC(=O)O)C(=O)O)cc(c34)C(=O)[C@@H]1[C@]13COC(=O)c4c(O)cc(C)c(c41)C(=O)[C@H]2[C@@H]3OC(C)=O`, for which the result with Candida albicans [6], in the assay with Saccharomyces cerevisiae [7], in the assay with Escherichia coli [8], in the assay on Bacillus subtilis [9] and in the assay filed under Mus musculus was inactive.
As to `Cc1cc(O)c2c3c1C(=O)[C@@H]1C4=C(C(=O)c5cn([C@H](C(=O)O)C(C)C)c(=O)c6c(O)cc(C)c4c56)[C@@]3(COC2=O)[C@H]1O`, the outcome with Candida albicans [6], with Saccharomyces cerevisiae [7], with Escherichia coli [8], with Bacillus subtilis [9] and in the assay listed under Mus musculus was inactive.
In the case of `CC[C@H](C)[C@@H](C(=O)O)n1cc2c3c(c(C)cc(O)c3c1=O)[C@]1(OC)[C@H](C2=O)[C@]23COC(=O)c4c(O)cc(C)c(c42)C(=O)[C@H]1[C@@H]3OC(C)=O`, the result with Candida albicans [6], in the assay with Saccharomyces cerevisiae [7], in the assay on Escherichia coli [8], in the assay with Bacillus subtilis [9] and in the assay filed under Mus musculus was inactive.
For the compound `CO[C@@]12c3c(C)cc(O)c4c(=O)n([C@@H](CCC(N)=O)C(=O)O)cc(c34)C(=O)[C@@H]1[C@]13COC(=O)c4c(O)cc(C)c(c41)C(=O)[C@H]2[C@@H]3OC(C)=O`, the result with Candida albicans [6], in the assay on Saccharomyces cerevisiae [7], in the assay on Escherichia coli [8], in the assay with Bacillus subtilis [9] and in the assay listed under Mus musculus was inactive.
`CO[C@@]12c3c(C)cc(O)c4c(=O)n([C@H](CC(C)C)C(=O)O)cc(c34)C(=O)[C@@H]1[C@]13COC(=O)c4c(O)cc(C)c(c41)C(=O)[C@H]2[C@@H]3OC(C)=O`: the result in the assay with Candida albicans [6], in the assay on Saccharomyces cerevisiae [7], in the assay with Escherichia coli [8], in the assay on Bacillus subtilis [9] and in the assay filed under Mus musculus was inactive.
Regarding `CO[C@@]12c3c(C)cc(O)c4c(=O)occ(c34)C(=O)[C@@H]1[C@]13COC(=O)c4c(O)cc(C)c(c41)C(=O)[C@H]2[C@@H]3OC(C)=O`, the IC50 entry was “Not Active” in the assay with Escherichia coli [3]; above 200 µM in the assay with Bacillus subtilis [4]; 140 µM in assay [5]; “Not Active” with Candida albicans [1]; above 200 µM with Saccharomyces cerevisiae [2]. Further, the minimal inhibitory concentration (MIC) in assay [5] amounted to 100 µg/mL (≈ 183 µM).
`CC(=O)CC1(O)C(=O)c2c(O)cc(C)c3c(O)cc(O)c(c23)C1=O` (stereo not drawn): the outcome in the assay with Candida albicans [6], in the assay with Saccharomyces cerevisiae [7], in the assay on Escherichia coli [8], in the assay with Bacillus subtilis [9] and in the assay listed under Mus musculus was inactive.
With `CO[C@@]12c3c(C)cc(O)c4c(=O)n([C@H](C(=O)O)C(C)C)cc(c34)C(=O)[C@@H]1[C@]13COC(=O)c4c(O)cc(C)c(c41)C(=O)[C@H]2[C@@H]3OC(C)=O`, the result in the assay with Candida albicans [6], in the assay on Saccharomyces cerevisiae [7], with Escherichia coli [8], in the assay on Bacillus subtilis [9] and in the assay filed under Mus musculus was inactive.
With `CO[C@@]12c3c(C)cc(O)c4c(=O)n([C@@H](CC(C)C)C(=O)O)cc(c34)C(=O)[C@@H]1[C@]13COC(=O)c4c(O)cc(C)c(c41)C(=O)[C@H]2[C@@H]3OC(C)=O`, the outcome with Candida albicans [6], in the assay with Saccharomyces cerevisiae [7], in the assay with Escherichia coli [8], in the assay with Bacillus subtilis [9] and in the assay filed under Mus musculus was inactive.
As to `CC[C@@H](C)[C@H](C(=O)O)n1cc2c3c(c(C)cc(O)c3c1=O)[C@]1(OC)[C@H](C2=O)[C@]23COC(=O)c4c(O)cc(C)c(c42)C(=O)[C@H]1[C@@H]3OC(C)=O`, the result in the assay with Candida albicans [6], in the assay with Saccharomyces cerevisiae [7], in the assay on Escherichia coli [8], in the assay with Bacillus subtilis [9] and in the assay listed under Mus musculus was inactive.
Take `CC1(C)S[C@@H]2[C@H](NC(=O)[C@H](N)c3ccccc3)C(=O)N2[C@H]1C(=O)O` [AMPICILLIN]: the IC50 result in the assay on Escherichia coli [3] is “Not Active”; in the assay on Bacillus subtilis [4] it was 0.9 µM.
With `O=c1[nH]cc(F)c(=O)[nH]1` [FLUOROURACIL], in [5], the IC50 came to 4.6 µM.
